According to patent US6737383B1, “Herbicidal oxadiazolidines” (priority 1999, dated 2004):

Experiments:
bedstraw = experiment: Test B pre/postemergence bedstraw; format: in vivo, Galium aparine
Procedure, shortened: (§1)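 Herbicidal effect was estimated by eye on a ten-point control scale after plants spent twelve to sixteen days in a greenhouse following soil or foliar treatment. Foliar sprays targeted plants at one to four leaves; all doses were formulated in a non-phytotoxic solvent with surfactant.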

blackgrass = experiment: Test B pre/postemergence blackgrass; format: in vivo, Alopecurus myosuroides
Procedure, shortened: as §1

surinam grass = experiment: Test B pre/postemergence surinam grass; format: in vivo, Brachiaria decumbens
Procedure, shortened: as §1

cocklebur = experiment: Test B pre/postemergence cocklebur; format: in vivo, Xanthium strumarium
Procedure, shortened: as §1

corn = experiment: Test B pre/postemergence corn; format: in vivo, Zea mays
Procedure, shortened: as §1

crabgrass = experiment: Test B pre/postemergence crabgrass; format: in vivo, Digitaria sanguinalis
Procedure, shortened: as §1

giant foxtail = experiment: Test B pre/postemergence giant foxtail; format: in vivo, Setaria faberii
Procedure, shortened: as §1

rape = experiment: Test B pre/postemergence rape; format: in vivo, Brassica napus
Procedure, shortened: as §1

soybean = experiment: Test B pre/postemergence soybean; format: in vivo, Glycine max
Procedure, shortened: as §1

sugar beet = experiment: Test B pre/postemergence sugar beet; format: in vivo, Beta vulgaris
Procedure, shortened: as §1

velvetleaf = experiment: Test B pre/postemergence velvetleaf; format: in vivo, Abutilon theophrasti
Procedure, shortened: as §1

wheat = experiment: Test B pre/postemergence wheat; format: in vivo, Triticum aestivum
Procedure, shortened: as §1

purple nutsedge = experiment: Test B pre/postemergence purple nutsedge; format: in vivo, Cyperus rotundus
Procedure, shortened: as §1

rice = experiment: Test B flood test rice; format: in vivo, Oryza sativa
Procedure, shortened: (§2)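 Each value is a visual injury score relative to controls, with 10 meaning complete control and 0 no effect. Evaluation took place twelve to sixteen days after the 2-leaf-stage plants were treated and kept in the greenhouse.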

smallflower flatsedge = experiment: Test B flood test smallflower flatsedge; format: in vivo, Cyperus difformis
Procedure, shortened: as §2

duck salad = experiment: Test B flood test duck salad; format: in vivo, Heteranthera limosa
Procedure, shortened: as §2

bamyardgrass = experiment: Test B flood test barnyardgrass; format: in vivo, Echinochloa crus-galli
Procedure, shortened: as §2

[1] = Postemergence, Rate 62 g/ha, scale 0 to 10, 0 is no effect, 10 is complete control
[2] = Postemergence, Rate 250 g/ha, scale 0 to 10, 0 no effect, 10 complete control
[3] = Preemergence, Rate 31 g/ha, visual rating, scale 0 to 10 (0 no effect, 10 complete control)
[4] = Preemergence, Rate 62 g/ha, scale 0 to 10, 0 is no effect, 10 is complete control
[5] = Preemergence, Rate 125 g/ha, scale 0 to 10 (0 no effect, 10 complete control)
[6] = Preemergence, Rate 250 g/ha, scale of 0 to 10 where 0 is no effect and 10 is complete control
[7] = Rate 31 g/ha, Postemergence, scale 0 to 10
[8] = Rate 125 g/ha, Postemergence, scale 0 to 10, 0 no effect, 10 complete control
[9] = Rate 125 g/ha, Postemergence section (flood test species), scale 0 to 10, 0 no effect, 10 complete control
[10] = Rate 500 g/ha, Postemergence section of Table B, 0 to 10 scale (0 no effect, 10 complete control)
[11] = flood test, listed under Postemergence, Rate 250 g/ha, scale 0 to 10, 0 no effect, 10 complete control

COc1ccc(-n2c(=O)on(C(=O)N(c3ccc(F)cc3F)C(C)C)c2=O)c(OC)c1 [Compound 32]
7: Blackgrass plant response rating (blackgrass; [2])
4: Plant response rating, Blackgrass (blackgrass; [6]) | Plant response rating, Crabgrass (crabgrass; [4]) | Plant response rating, Giant foxtail (giant foxtail; [4])
1: Plant response rating, Blackgrass (blackgrass; [4]) | Giant foxtail plant response rating (giant foxtail; [3])
6: Plant response rating, Crabgrass (crabgrass; [5])
3: Crabgrass plant response rating (crabgrass; [2])
0: Bedstraw plant response rating (bedstraw; [1]) | Bedstraw plant response rating (bedstraw; [2]) | Bedstraw plant response rating (bedstraw; [3]) | Plant response rating, Bedstraw (bedstraw; [4]) | Plant response rating, Bedstraw (bedstraw; [5]) | Plant response rating, Bedstraw (bedstraw; [6]) | Bedstraw plant response rating (bedstraw; [7]) | Bedstraw plant response rating (bedstraw; [8]) | Blackgrass plant response rating (blackgrass; [1]) | Blackgrass plant response rating (blackgrass; [3]) | Blackgrass plant response rating (blackgrass; [7]) | Blackgrass plant response rating (blackgrass; [8]) | B. signalgrass plant response rating (surinam grass; [1]) | B. signalgrass plant response rating (surinam grass; [2]) | B. signalgrass plant response rating (surinam grass; [3]) | Plant response rating, B. signalgrass (surinam grass; [4]) | Plant response rating, B. signalgrass (surinam grass; [5]) | B. signalgrass plant response rating (surinam grass; [7]) | B. signalgrass plant response rating (surinam grass; [8]) | Cocklebur plant response rating (cocklebur; [1]) | Cocklebur plant response rating (cocklebur; [2]) | Cocklebur plant response rating (cocklebur; [3]) | Plant response rating, Cocklebur (cocklebur; [4]) | Plant response rating, Cocklebur (cocklebur; [5]) | Plant response rating, Cocklebur (cocklebur; [6]) | Cocklebur plant response rating (cocklebur; [7]) | Cocklebur plant response rating (cocklebur; [8]) | Corn plant response rating (corn; [1]) | Corn plant response rating (corn; [2]) | Corn plant response rating (corn; [3]) | Plant response rating, Corn (corn; [4]) | Plant response rating, Corn (corn; [5]) | Plant response rating, Corn (corn; [6]) | Corn plant response rating (corn; [7]) | Corn plant response rating (corn; [8]) | Crabgrass plant response rating (crabgrass; [1]) | Crabgrass plant response rating (crabgrass; [3]) | Crabgrass plant response rating (crabgrass; [7]) | Giant foxtail plant response rating (giant foxtail; [1]) | Giant foxtail plant response rating (giant foxtail; [2]) | Giant foxtail plant response rating (giant foxtail; [7]) | Giant foxtail plant response rating (giant foxtail; [8]) | Rape plant response rating (rape; [1]) | Rape plant response rating (rape; [2]) | Rape plant response rating (rape; [3]) | Plant response rating, Rape (rape; [4]) | Plant response rating, Rape (rape; [5]) | Plant response rating, Rape (rape; [6]) | Rape plant response rating (rape; [7]) | Rape plant response rating (rape; [8]) | Soybean plant response rating (soybean; [3]) | Plant response rating, Soybean (soybean; [4]) | Plant response rating, Soybean (soybean; [5]) | Plant response rating, Soybean (soybean; [6]) | Sugarbeets plant response rating (sugar beet; [1]) | Sugarbeets plant response rating (sugar beet; [2]) | Sugarbeets plant response rating (sugar beet; [3]) | Plant response rating, Sugarbeets (sugar beet; [4]) | Plant response rating, Sugarbeets (sugar beet; [5]) | Plant response rating, Sugarbeets (sugar beet; [6]) | Sugarbeets plant response rating (sugar beet; [8]) | Velvetleaf plant response rating (velvetleaf; [1]) | Velvetleaf plant response rating (velvetleaf; [2]) | Velvetleaf plant response rating (velvetleaf; [3]) | Plant response rating, Velvetleaf (velvetleaf; [4]) | Plant response rating, Velvetleaf (velvetleaf; [5]) | Plant response rating, Velvetleaf (velvetleaf; [6]) | Velvetleaf plant response rating (velvetleaf; [8]) | Wheat plant response rating (wheat; [1]) | Wheat plant response rating (wheat; [2]) | Wheat plant response rating (wheat; [3]) | Plant response rating, Wheat (wheat; [4]) | Plant response rating, Wheat (wheat; [5]) | Plant response rating, Wheat (wheat; [6]) | Wheat plant response rating (wheat; [8]) | Nutsedge plant response rating (purple nutsedge; [1]) | Nutsedge plant response rating (purple nutsedge; [2]) | Nutsedge plant response rating (purple nutsedge; [3]) | Plant response rating, Nutsedge (purple nutsedge; [4]) | Plant response rating, Nutsedge (purple nutsedge; [5]) | Plant response rating, Nutsedge (purple nutsedge; [6]) | Nutsedge plant response rating (purple nutsedge; [7]) | Nutsedge plant response rating (purple nutsedge; [8]) | Rice plant response rating (rice; [1]) | Rice plant response rating (rice; [9]) | Rice plant response rating (rice; [10]) | Rice plant response rating (rice; [11]) | S. Flatsedge plant response rating (smallflower flatsedge; [1]) | S. Flatsedge plant response rating (smallflower flatsedge; [9]) | Ducksalad plant response rating (duck salad; [1]) | Ducksalad plant response rating (duck salad; [9]) | Ducksalad plant response rating (duck salad; [11]) | Barnyardgrass plant response rating (bamyardgrass; [1]) | Barnyardgrass plant response rating (bamyardgrass; [9])
9: Plant response rating, Crabgrass (crabgrass; [6]) | Plant response rating, Giant foxtail (giant foxtail; [6]) | Barnyardgrass plant response rating (bamyardgrass; [10])
8: Plant response rating, Giant foxtail (giant foxtail; [5]) | Barnyardgrass plant response rating (bamyardgrass; [11])
2: Plant response rating, Blackgrass (blackgrass; [5]) | Plant response rating, B. signalgrass (surinam grass; [6]) | Crabgrass plant response rating (crabgrass; [8]) | Soybean plant response rating (soybean; [1]) | Soybean plant response rating (soybean; [2]) | Soybean plant response rating (soybean; [8]) | S. Flatsedge plant response rating (smallflower flatsedge; [11]) | Ducksalad plant response rating (duck salad; [10])
